Data set [1] is described as follows: logP determination by HPLC on a reversed-phase column (C18). In kind it is physicochemical. The following applies: for logP^a): HPLC-MS method a); for log P: HPLC-MS.
The next data set deals with Rhipicephalus sanguineus. The experiment in a line: Rhipicephalus sanguineus - in vitro contact tests with adult brown dog ticks. In kind it is in vivo. Conditions: application rate 5 μg/cm2; after 48 h; ticks dead or moribund. The gist of the method:
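Test tubes coated with active ingredient in acetone, 5 μg/cm^2 at 900 ppm. 5-10 adult ticks per tube, kept dark at room temperature for 48 h. Ticks then heated at 45-50° C ≤5 min; motionless or uncoordinated ticks scored dead/moribund, efficacy as % dead or moribund.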

In data set [2] the test system is Ctenocephalides felis. The experiment in a line: Ctenocephalides felis - in vitro contact tests with adult cat fleas. In kind it is in vivo. Conditions: application rate 5 μg/cm2 (=500 g/ha); after 48 h; fleas dead or moribund. The gist of the method:
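Tubes coated with compound in acetone (250 μl of 900 ppm solution gives 5 μg/cm^2 on 44.7 cm^2), solvent evaporated, then 5–10 adult fleas added and kept horizontal at room temperature and ambient humidity. After 48 h, dead or moribund (motionless/uncoordinated) fleas scored as % efficacy.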

The next data set has as its system Amblyomma hebraeum. The experiment in a line: Amblyomma hebaraeum test (tick nymphs, immersion). The data set is classed as in vivo. The following applies: application rate 100 ppm; tick nymphs immersed one minute; after 42 days. The gist of the method: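 Tick nymphs immersed for one minute in compound diluted in water from a DMSO concentrate, then held on filter paper in a Petri dish in a climate-controlled cabinet. Kill (%) scored after 42 days; 100% means all ticks dead, 0% none.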

A further data set deals with Boophilus microplus. The experiment in a line: Boophilus microplus - injection test. Conditions: application rate 20 μg/animal; injection into engorged adult female ticks; after 7 days. In kind it is in vivo. The gist of the method: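 Active ingredient in DMSO, 1 μl injected into the abdomen of 5 engorged adult female ticks, then held in a climate-controlled room. Efficacy scored after 7 days from laying of fertile eggs, with non-fertile-looking eggs kept about 42 days for larval hatch; 100% means no fertile eggs.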

Data set [3] deals with Boophilus microplus Parkhurst strain, SP-resistant. The experiment in a line: Boophilus microplus - dip test. The following applies: application rate 100 ppm; dip of engorged adult female ticks; after 7 days. In kind it is in vivo. The gist of the method:
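SP-resistant Parkhurst strain engorged adult female Boophilus microplus (8-10 per tube) dipped in DMSO-based compound dilutions in water, then kept in a climate-controlled room. Efficacy scored after 7 days from fertile egg laying, with larval hatch checked after about 42 days; 100% means no fertile eggs.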

In data set [4] the test system is Ctenocephalides felis. The experiment in a line: Ctenocephalides felis - oral test. In kind it is in vivo. Conditions: application rate 100 ppm in citrated cattle blood; after 2 days. The gist of the method:
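Compound in DMSO diluted into citrated cattle blood, fed through a parafilm membrane to about 20 unfed adult cat fleas. Kill in % scored after 2 days (100% = all dead).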

In a further data set the test system is Lucilia cuprina. The experiment in a line: Lucilia cuprina test. In kind it is in vivo. Conditions: application rate 100 ppm; L1 larvae; after 2 days. The gist of the method: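 About 20 L1 larvae placed on minced horsemeat treated with compound, formulated in DMSO and diluted with water to test concentration. Kill in % scored after 2 days (100% = all larvae dead, 0% = none).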

The subject of the next data set is Musca domestica. The experiment in a line: Musca domestica test. The data set is classed as in vivo. Conditions: application rate 100 ppm; adult houseflies; after 2 days. The gist of the method: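 Percent kill of adult houseflies is recorded 2 days after exposure, where 100% denotes all flies dead and 0% none. Flies (10 per vessel) feed from a sponge carrying sugar solution and the aqueous-diluted DMSO formulation.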

The subject of the next data set is Myzus persicae. The experiment in a line: Myzus persicae - spray test. In kind it is in vivo. Conditions: Chinese cabbage leaf discs, after 6 days. The gist of the method: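 Chinese cabbage leaf discs carrying all stages of Myzus persicae sprayed with compound in acetone/DMF diluted in water with 1000 ppm emulsifier. Efficacy (% aphids killed) assessed after 6 days.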

The next data set concerns Phaedon cochleariae. The experiment in a line: Phaedon cochleariae - spray test. The data set is classed as in vivo. Conditions: larvae on Chinese cabbage leaf discs, after 7 days. The gist of the method: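 Chinese cabbage leaf discs sprayed with compound formulated in acetone/DMF and water containing 1000 ppm emulsifier; once dry, infested with mustard beetle larvae. Efficacy (% larvae killed) scored after 7 days.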

The test system of another data set is Spodoptera frugiperda. The experiment in a line: Spodoptera frugiperda - spray test. In kind it is in vivo. Conditions: caterpillars on maize leaf discs, after 7 days. The gist of the method: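 Maize leaf discs sprayed with compound formulated in acetone/DMF and diluted in water containing 1000 ppm alkylaryl polyglycol ether emulsifier, then infested with armyworm caterpillars after drying. Efficacy scored after 7 days as % caterpillars killed (100% all, 0% none).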

Another data set has as its system Tetranychus urticae. The experiment in a line: Tetranychus urticae - spray test, OP-resistant. In kind it is in vivo. The following applies: bean leaf discs, after 6 days. The gist of the method: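 Compound dissolved in acetone/DMF, diluted with water containing 1000 ppm alkylaryl polyglycol ether emulsifier to test concentrations. Bean leaf discs infested with all stages of spider mites were sprayed; % kill determined after 6 days (100% = all mites dead, 0% = none).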

Setting [5] is: reversed-phase column (C18), Table I-T3.

By log P is commonly meant a log measure of how a compound divides between an organic and an aqueous phase. A high value points to higher lipophilicity. For `Cc1ncc(-c2cnn(-c3c(Cl)cc(C(F)(C(F)(F)F)C(F)(F)F)cc3Cl)c2)cc1C(=O)NC1(C#N)CC1` [I-T3-92], the “logP^a)” value in data set [1] stood at 3.4. For the same compound, the “log P” value in data set [1] (setting [5]) is reported as 3.4. In addition, the efficacy with Rhipicephalus sanguineus is given as 80%; in the data set on Ctenocephalides felis [2], 100%; in the data set on Myzus persicae (application rate 500 g/ha), 100%; in the data set on Phaedon cochleariae (application rate 500 g/ha), 100%; in the data set on Spodoptera frugiperda (application rate 500 g/ha) it was 100%; with Tetranychus urticae (application rate 500 g/ha) it was 100%. In addition, the “efficacy (kill)” value with Amblyomma hebraeum, in the data set on Ctenocephalides felis [4], in the data set on Lucilia cuprina and in the data set on Musca domestica was 100% in each case. For the same compound, the “efficacy (laying of fertile eggs)” value (with Boophilus microplus; in [3]) was 100% in each case.

Turning to `Cc1cc(C(F)(C(F)(F)F)C(F)(F)F)cc(C)c1-n1cc(-c2cnc(C)c(C(=O)NC3CC3)c2)cn1` [I-T3-96], the “logP^a)” value in data set [1] is given as 3.3. Moreover, the “log P” value in data set [1] (setting [5]) came to 3.3. For the same compound, the efficacy was 100% in the data set with Rhipicephalus sanguineus; 100% in the data set on Ctenocephalides felis [2]; 90% in the data set with Myzus persicae (application rate 100 g/ha); 100% in the data set on Phaedon cochleariae (application rate 500 g/ha); 100% in the data set on Spodoptera frugiperda (application rate 500 g/ha); 100% in the data set with Tetranychus urticae (application rate 500 g/ha). Further, the “efficacy (kill)” value in the data set on Amblyomma hebraeum, in the data set with Ctenocephalides felis [4], in the data set with Lucilia cuprina and in the data set with Musca domestica was 100% throughout. Also, the “efficacy (laying of fertile eggs)” value (with Boophilus microplus; in data set [3]) was 100% each time.

For `O=C(NC1CC1)c1cc(-c2cnn(-c3c(Cl)cc(C(F)(F)F)cc3Cl)c2)cnc1Cl` [I-T3-98], the “logP^a)” value in [1] is recorded as 3.1. For the same compound, the “log P” value in data set [1] (setting [5]) is listed as 3.1. The efficacy stood at 100% in the data set on Rhipicephalus sanguineus; 100% with Ctenocephalides felis [2]; 90% in the data set with Myzus persicae (application rate 100 g/ha); 100% with Phaedon cochleariae (application rate 500 g/ha); 100% in the data set with Spodoptera frugiperda (application rate 500 g/ha); 100% in the data set with Tetranychus urticae (application rate 500 g/ha). The “efficacy (kill)” value with Amblyomma hebraeum is given as 100%; in the data set on Ctenocephalides felis [4], 100%; in the data set on Lucilia cuprina it was 100%; in the data set on Musca domestica, 90%. Moreover, the “efficacy (laying of fertile eggs)” value (in the data set with Boophilus microplus; in [3]) was 100% each time.

For `N#CC1(NC(=O)c2cc(-c3cnn(-c4c(Cl)cc(C(F)(C(F)(F)F)C(F)(F)F)cc4Cl)c3)cnc2Cl)CC1` [I-T3-43], the “logP^a)” value in data set [1] and in data set [1] (setting [5]) was 3.8 each time. Moreover, the efficacy in the data set on Rhipicephalus sanguineus worked out at 80%; in the data set on Ctenocephalides felis [2], 100%; in the data set on Myzus persicae (application rate 500 g/ha), 100%; in the data set with Phaedon cochleariae (application rate 500 g/ha), 100%; in the data set on Spodoptera frugiperda (application rate 500 g/ha), 100%; with Tetranychus urticae (application rate 500 g/ha) it was 100%. The “efficacy (kill)” value in the data set with Amblyomma hebraeum, with Ctenocephalides felis [4], in the data set with Lucilia cuprina and with Musca domestica was 100% each time. In addition, the “efficacy (laying of fertile eggs)” value (in the data set with Boophilus microplus; in data set [3]) was 100% throughout.

As for `Cc1cc(C(F)(C(F)(F)F)C(F)(F)F)cc(C)c1-n1cc(-c2cnc(Cl)c(C(=O)NC3(C#N)CC3)c2)cn1` [I-T3-21], the “logP^a)” value in data set [1] and in data set [1] (setting [5]) was 3.7 each time. Further, the efficacy was 100% with Rhipicephalus sanguineus; 100% with Ctenocephalides felis [2]; 90% with Myzus persicae (application rate 500 g/ha); 100% in the data set with Phaedon cochleariae (application rate 500 g/ha); 100% in the data set with Spodoptera frugiperda (application rate 500 g/ha); 100% with Tetranychus urticae (application rate 500 g/ha). Moreover, the “efficacy (kill)” value in the data set on Amblyomma hebraeum, in the data set with Ctenocephalides felis [4], with Lucilia cuprina and in the data set on Musca domestica was 100% each time. The “efficacy (laying of fertile eggs)” value (in the data set with Boophilus microplus; in [3]) was 100% in each case.

As to `Cc1cc(C(F)(C(F)(F)F)C(F)(F)F)cc(C)c1-n1cc(-c2ccc(Cl)c(C(=O)NC3(C#N)CC3)c2)cn1` [I-T3-3], the “logP^a)” value in [1] and in data set [1] (setting [5]) was 4.2 in each case. Further, the efficacy in the data set on Rhipicephalus sanguineus, in the data set with Ctenocephalides felis [2], in the data set on Myzus persicae (application rate 100 g/ha), in the data set with Phaedon cochleariae (application rate 100 g/ha), with Spodoptera frugiperda (application rate 100 g/ha) and in the data set with Tetranychus urticae (application rate 100 g/ha) was 100% throughout. For the same compound, the “efficacy (kill)” value with Amblyomma hebraeum, with Ctenocephalides felis [4], with Lucilia cuprina and with Musca domestica was 100% in each case. The “efficacy (laying of fertile eggs)” value (with Boophilus microplus; in [3]) was 100% in each case.

As for `Cc1cc(C(F)(C(F)(F)F)C(F)(F)F)cc(C(F)(F)F)c1-n1cc(-c2cnc(C)c(C(=O)NC3CC3)c2)cn1` [I-T3-117], the “logP^a)” value in data set [1] (reversed-phase column (C18)) came out at 3.5. Also, the “log P” value in [1] (setting [5]) came to 3.5. Also, the efficacy with Rhipicephalus sanguineus was 100%; in the data set with Ctenocephalides felis [2], 100%; in the data set on Myzus persicae (application rate 500 g/ha), 90%; in the data set with Phaedon cochleariae (application rate 500 g/ha) it was 100%; with Spodoptera frugiperda (application rate 500 g/ha), 100%; in the data set with Tetranychus urticae (application rate 500 g/ha), 90%. The “efficacy (kill)” value with Amblyomma hebraeum, in the data set on Ctenocephalides felis [4], in the data set with Lucilia cuprina and with Musca domestica was 100% in each case. For the same compound, the “efficacy (laying of fertile eggs)” value (with Boophilus microplus; in data set [3]) was 100% each time.

In the case of `Cc1cc(C(F)(C(F)(F)F)C(F)(F)F)cc(C(F)(F)F)c1-n1cc(-c2cnc(C)c(C(=O)NC3(C#N)CC3)c2)cn1` [I-T3-119], the “logP^a)” value in [1] (reversed-phase column (C18)) came to 3.6. In addition, in data set [1] (setting [5]), the “log P” value came to 3.6. In addition, the efficacy in the data set with Rhipicephalus sanguineus turned out to be 100%; with Ctenocephalides felis [2], 100%; in the data set with Myzus persicae (application rate 500 g/ha), 90%; in the data set with Phaedon cochleariae (application rate 500 g/ha), 100%; in the data set on Spodoptera frugiperda (application rate 500 g/ha) it was 100%; with Tetranychus urticae (application rate 500 g/ha), 100%. The “efficacy (kill)” value with Amblyomma hebraeum, in the data set with Ctenocephalides felis [4], in the data set with Lucilia cuprina and in the data set with Musca domestica was 100% in each case. Besides, the “efficacy (laying of fertile eggs)” value (with Boophilus microplus; in data set [3]) was 100% throughout.

In the case of `CCc1cc(C(F)(C(F)(F)F)C(F)(F)F)cc(Cl)c1-n1cc(-c2ccc(Cl)c(C(=O)NC3CC3)c2)cn1` [I-T3-72], the “logP^a)” value in data set [1] and in data set [1] (setting [5]) was 4.6 each time. Moreover, the efficacy in the data set on Rhipicephalus sanguineus worked out at 100%; in the data set with Ctenocephalides felis [2], 100%; with Myzus persicae (application rate 100 g/ha) it was 90%; with Phaedon cochleariae (application rate 100 g/ha), 100%; with Spodoptera frugiperda (application rate 100 g/ha), 100%; in the data set with Tetranychus urticae (application rate 100 g/ha) it was 100%. The “efficacy (kill)” value with Amblyomma hebraeum, in the data set with Ctenocephalides felis [4], in the data set on Lucilia cuprina and with Musca domestica was 100% in each case. Also, the “efficacy (laying of fertile eggs)” value (in the data set with Boophilus microplus; in data set [3]) was 100% each time.

The record behind these values is US10150737B2, “Compounds for controlling arthropods” (priority 2013, dated 2018).
